The values that follow come from patent US9453014B2, “Cyclic amide derivatives as inhibitors of 11-β-hydroxysteroid dehydrogenase and uses thereof” (CONNEXIOS LIFE SCIENCES PVT. LTD., priority 2011, dated 2016).

The target in the experiment is T1, human full length HSD11 β 1 (Homo sapiens, UniProt P28845).
T1 construct: transient expression of human full length HSD11 β 1 expression vector; host or cells: CHO cells (transient transfection)
T1 sequence (P28845 whole entry): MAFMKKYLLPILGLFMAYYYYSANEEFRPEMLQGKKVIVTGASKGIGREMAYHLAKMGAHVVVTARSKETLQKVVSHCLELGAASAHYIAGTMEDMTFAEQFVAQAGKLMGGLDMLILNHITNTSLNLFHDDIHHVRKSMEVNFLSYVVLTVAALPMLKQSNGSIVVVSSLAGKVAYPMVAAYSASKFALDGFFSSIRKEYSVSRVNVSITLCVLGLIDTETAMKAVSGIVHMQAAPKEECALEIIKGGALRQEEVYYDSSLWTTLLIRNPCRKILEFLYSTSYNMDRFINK
Put plainly: In Vitro HSD11β1 Inhibition Assay. It is filed as cell-based. The note with it: CHO cells transiently expressing human HSD11β1; 200 nM cortisone+500 uM NADPH overnight; cortisone to cortisol by LC/MS-MS; read-out: 11βHSD1 (IC50). On the procedure:
In Vitro HSD11β1 Inhibition Assay:
CHO cells were maintained in Dulbecco's modified Eagle's medium/nutrient mixture F-12 containing 5% fetal bovine serum (v/v) and 2 mM glutamine. Cells were cultured at 37° C. with 5% CO2. For transient expression of human full length HSD11 β 1 expression vector (OriGene Technologies), cells were seeded at a density of 2×10^5 cells/well in a 6-well plate. Transfection was done using Turbofectin8 reagent (OriGene Technologies), according to the protocol provided with the reagent. After 24 hours post-transfection, cells were trypsinized and pooled together before they were re-seeding to 96-well plate at a density of 40000 cells/well. 24 hours after re-seeding, cells were incubated with 200 nM cortisone+500 uM NADPH (or along with small molecule inhibitors) overnight. The enzymatic activity or inhibition of enzyme activity was measured by estimating the conversion of cortisone to cortisol by LC/MS-MS method. The IC50 in nM was calculated from an 8 point log scale of concentration versus inhibition.
Take `COn1cc(C(C)CC(=O)N2CCCC3C(C(=O)O)CCCC32)c2c(C3CC3)cccc21` (centres unmarked) [Compound 241, 1-[3-(4-cyclopropyl-1-methoxy-1H-indol-3-yl)butanoyl]decahydroquinoline-5-carboxylic acid]: the IC50 (commonly the concentration that gives 50% inhibition) is more than 250 nM.

On to `O=C(CCc1cn(S(=O)(=O)c2ccccc2)c2ncccc12)N1CCCC2CCCCC21` (centres unmarked) [Example 85, 1-(octahydroquinolin-1(2H)-yl)-3-[1-(phenylsulfonyl)-1H-pyrrolo[2,3-b]pyridin-3-yl]propan-1-one], for which the IC50 was more than 250 nM. The same measure for `O=C(O)C1CCC2CCCCC2N1C(=O)CC(c1cccs1)c1c[nH]c2cccc(F)c12` (centres unmarked) [Example 170, 1-[3-(4-fluoro-1H-indol-3-yl)-3-(thiophen-2-yl)propanoyl]decahydroquinoline-2-carboxylic acid]: more than 250 nM. Next, `CCn1cc(C(C)CC(=O)N2CCCC3C(C(=O)O)CCCC32)c2c(Cl)cccc21` (centres unmarked) [Compound 266, 1-[3-(4-chloro-1-ethyl-1H-indol-3-yl)butanoyl]decahydroquinoline-5-carboxylic acid]: more than 250 nM; `O=C(Cc1c[nH]c2ccc(F)cc12)N1CCCC2CCCCC21` (centres unmarked) [Compound 10, 2-(5-fluoro-1H-indol-3-yl)-1-(octahydroquinolin-1(2H)-yl)ethanone]: 100 to 150 nM; `Cc1cccc2[nH]cc(CCC(=O)N3C(C)CCC4CCCCC43)c12` (centres unmarked) [Compound 35, 3-(4-methyl-1H-indol-3-yl)-1-(2-methyloctahydroquinolin-1(2H)-yl)propan-1-one]: less than 100 nM.

For `CC(CC(=O)N1CCCC2C(C(=O)O)CCCC21)c1c[nH]c2cccc(-c3ccco3)c12` (single isomer, unassigned) [Compound 224, 1-{3-[4-(furan-2-yl)-1H-indol-3-yl]butanoyl}decahydroquinoline-5-carboxylic acid], the concentration for half-maximal inhibition (IC50) is less than 100 nM. For the molecule `CC(CC(=O)N1CCCC2C(C(=O)O)CCCC21)c1cn(C2CC2)c2cccc(Cl)c12` (centres unmarked) [Compound 261, 1-[3-(4-chloro-1-cyclopropyl-1H-indol-3-yl)butanoyl]decahydroquinoline-5-carboxylic acid], the IC50 lay in the range of 200 to 250 nM. `CC(CC(=O)N1CCCC2C(C(=O)O)CCCC21)c1c[nH]c2cccc(-c3ccc(F)cc3)c12` (single isomer, unassigned) [Compound 255, 1-{3-[4-(4-fluorophenyl)-1H-indol-3-yl]butanoyl}decahydroquinoline-5-carboxylic acid]: the concentration for half-maximal inhibition (IC50) is less than 100 nM.

As for `CC(CC(=O)N1CCCC2CCCCC21)c1c[nH]c2cccc(F)c12` (single isomer, unassigned) [Example 122, 3-(4-fluoro-1H-indol-3-yl)-1-(octahydroquinolin-1(2H)-yl)butan-1-one], the IC50 was less than 100 nM. Consider `O=C(CSc1c[nH]c2ccccc12)N1CCCC2CCCCC21` (centres unmarked) [Compound 5, 2-(1H-indol-3-ylsulfanyl)-1-(octahydroquinolin-1(2H)-yl)ethanone], for which the IC50 was less than 100 nM.

Consider `CC(CC(=O)N1CCCC2C(C(=O)O)CCCC21)c1c[nH]c2cccc(-c3cccs3)c12` (centres unmarked) [Compound 192, 1-{3-[4-(thiophen-2-yl)-1H-indol-3-yl]butanoyl}decahydroquinoline-5-carboxylic acid], for which the IC50 is less than 100 nM. Regarding `Cc1cc(-c2cccc3[nH]cc(C(C)CC(=O)N4CCCC5C(C(=O)O)CCCC54)c23)on1` (centres unmarked) [Compound 239, 1-{3-[4-(3-methyl-1,2-oxazol-5-yl)-1H-indol-3-yl]butanoyl}decahydroquinoline-5-carboxylic acid], the IC50 is more than 250 nM. Next, `CC12CCCCC1N(C(=O)CCc1c[nH]c3ccccc13)CCC2` (single isomer, unassigned) [Compound 55, 3-(1H-indol-3-yl)-1-(4a-methyloctahydroquinolin-1(2H)-yl)propan-1-one]: less than 100 nM; `CC(CC(=O)N1C(C)CCC2CCCCC21)c1c[nH]c2ccc(F)cc12` (centres unmarked) [Example 92, 3-(5-fluoro-1H-indol-3-yl)-1-(2-methyloctahydroquinolin-1(2H)-yl)butan-1-one]: 100 to 150 nM; `CC1CCC2CCCCC2N1C(=O)CCc1c[nH]c2ncccc12` (centres unmarked) [Example 86, 1-(2-methyloctahydroquinolin-1(2H)-yl)-3-(1H-pyrrolo[2,3-b]pyridin-3-yl)propan-1-one]: less than 100 nM. For `O=C(CCc1c[nH]c2cc(F)ccc12)N1CCCC2CCCCC21` (centres unmarked) [Compound 39, 3-(6-fluoro-1H-indol-3-yl)-1-(octahydroquinolin-1(2H)-yl)propan-1-one], the IC50 is more than 250 nM. Next, `Cn1cc(CCC(=O)N2CCCC3CCCCC32)c2ccccc21` (centres unmarked) [Compound 13, 3-(1-methyl-1H-indol-3-yl)-1-(octahydroquinolin-1(2H)-yl)propan-1-one]: less than 100 nM; `CC(C)C(CC(=O)N1CCCC2CCCCC21)c1c[nH]c2ncccc12` (centres unmarked) [Example 164, 4-methyl-1-(octahydroquinolin-1(2H)-yl)-3-(1H-pyrrolo[2,3-b]pyridin-3-yl)pentan-1-one]: 100 to 150 nM. For the molecule `CC(CC(=O)N1CCC(C(=O)O)C2CCCCC21)c1c[nH]c2cccc(C3CC3)c12` (centres unmarked) [Compound 194, 1-[3-(4-cyclopropyl-1H-indol-3-yl)butanoyl]decahydroquinoline-4-carboxylic acid], the half-inhibitory concentration (IC50) was more than 250 nM.

For `CC(CC(=O)N1CCCC2C(c3nnn[nH]3)CCCC21)c1c[nH]c2cccc(C3CC3)c12` (centres unmarked) [Compound 240, 3-(4-cyclopropyl-1H-indol-3-yl)-1-[5-(1H-tetrazol-5-yl)octahydroquinolin-1(2H)-yl]butan-1-one], the IC50 is more than 250 nM. The same measure for `CC(CC(=O)N1CCCC2CCCCC21)c1c[nH]c2ccccc12` (single isomer, unassigned) [Example 125, 3-(1H-indol-3-yl)-1-(octahydroquinolin-1(2H)-yl)butan-1-one]: less than 100 nM.

Regarding `O=C(CCc1c[nH]c2ncccc12)N1CCCC2CCCCC21` (centres unmarked) [Example 84, 1-(octahydroquinolin-1(2H)-yl)-3-(1H-pyrrolo[2,3-b]pyridin-3-yl)propan-1-one], the IC50 was less than 100 nM. In the case of `CC(CC(=O)N1CCCC2CCCCC21)n1nnc2c(Cl)cccc21` (centres unmarked) [Example 166, 3-(4-chloro-1H-benzotriazol-1-yl)-1-(octahydroquinolin-1(2H)-yl)butan-1-one], the IC50 was more than 250 nM. Regarding `CC(C)C(CC(=O)N1CCCC2CCCCC21)c1c[nH]c2ccccc12` (centres unmarked) [Example 95, 3-(1H-indol-3-yl)-4-methyl-1-(octahydroquinolin-1(2H)-yl)pentan-1-one], the IC50 is less than 100 nM. Consider `CC(CC(=O)N1CCCC2CC(C(=O)O)CCC21)c1c[nH]c2cccc(C3CC3)c12` (centres unmarked) [Compound 217, 1-[3-(4-cyclopropyl-1H-indol-3-yl)butanoyl]decahydroquinoline-6-carboxylic acid], for which the IC50 was in the range of 100 to 150 nM. The same measure for `CC1CC2CCCCC2N(C(=O)CCc2c[nH]c3ccccc23)C1` (centres unmarked) [Compound 37, 3-(1H-indol-3-yl)-1-(3-methyloctahydroquinolin-1(2H)-yl)propan-1-one]: more than 250 nM; for `CC(CC(=O)N1CCCC2C(C(=O)O)CCCC21)c1c[nH]c2cccc(-c3ncccc3F)c12` (centres unmarked) [Compound 262, 1-{3-[4-(3-fluoropyridin-2-yl)-1H-indol-3-yl]butanoyl}decahydroquinoline-5-carboxylic acid]: more than 250 nM.

`CC(CC(=O)N1CCCC2CCCCC21)c1c[nH]c2cccc(N3CCC(C(=O)O)CC3)c12` (centres unmarked) [Compound 202, 1-{3-[4-(octahydroquinolin-1(2H)-yl)-4-oxobutan-2-yl]-1H-indol-4-yl}piperidine-4-carboxylic acid]: the IC50 was more than 250 nM. Consider `CC(CC(=O)N1CCC[C@H]2[C@H](C(=O)O)CCC[C@@H]21)c1c[nH]c2cccc(C3CC3)c12` (single isomer, unassigned) [Compound 199, 1-[3-(4-cyclopropyl-1H-indol-3-yl)butanoyl]decahydroquinoline-5-carboxylic acid], for which the IC50 was less than 100 nM.

Regarding `CC(CC(=O)N1CCC(C(=O)O)C2CCCCC21)c1c[nH]c2nccc(Cl)c12` (centres unmarked) [Example 171, 1-[3-(4-chloro-1H-pyrrolo[2,3-b]pyridin-3-yl)butanoyl]decahydroquinoline-4-carboxylic acid], the IC50 was more than 250 nM. Next, `Cc1cccc2[nH]cc(CCC(=O)N3CCC(=O)C4CCCCC43)c12` (centres unmarked) [Compound 32, 1-[3-(4-methyl-1H-indol-3-yl)propanoyl]octahydroquinolin-4(1H)-one]: more than 250 nM; `CC(CC(=O)N1CCCC2C(C(=O)O)CCCC21)c1c(C#N)[nH]c2cccc(C3CC3)c12` (centres unmarked) [Compound 252, 1-[3-(2-cyano-4-cyclopropyl-1H-indol-3-yl)butanoyl]decahydroquinoline-5-carboxylic acid]: more than 250 nM. For the molecule `CC(C)c1cccc2[nH]cc(C(C)CC(=O)N3CCCC4C(C(=O)O)CCCC43)c12` (centres unmarked) [Compound 211, 1-{3-[4-(propan-2-yl)-1H-indol-3-yl]butanoyl}decahydroquinoline-5-carboxylic acid], the IC50 was less than 100 nM. The same measure for `O=C(CCc1c[nH]c2ccccc12)N1CCC2CCCCC21` (centres unmarked) [Compound 41, 3-(1H-indol-3-yl)-1-(octahydro-1H-Indol-1-yl)propan-1-one]: 100 to 150 nM.
